Assay results: article PMC2909451 (European journal of pharmaceutical sciences : official …, 2010)
Structures can show the parent of a compound that is named as a salt. Where two headings read alike, the source gives them in different places.

Legend:
[1] = biological target: T1, human apical sodium-dependent transporter (SLC10A2, ASBT) (Homo sapiens, UniProt Q12908)
T1 sequence (Q12908 1-348): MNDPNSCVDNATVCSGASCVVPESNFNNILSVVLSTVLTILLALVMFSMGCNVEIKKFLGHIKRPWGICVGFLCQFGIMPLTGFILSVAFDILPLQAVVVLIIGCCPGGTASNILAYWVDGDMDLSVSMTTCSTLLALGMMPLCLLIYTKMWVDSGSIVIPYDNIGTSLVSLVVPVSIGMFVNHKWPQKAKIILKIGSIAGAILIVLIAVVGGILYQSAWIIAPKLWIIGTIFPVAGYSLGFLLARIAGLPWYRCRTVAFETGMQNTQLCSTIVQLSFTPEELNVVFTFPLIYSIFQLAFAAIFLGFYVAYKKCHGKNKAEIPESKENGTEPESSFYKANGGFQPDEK

[2] = biological target: T1, human apical sodium-dependent transporter (SLC10A2, ASBT); assay: ASBT cis-inhibition of taurocholate uptake in ASBT-MDCK cells; settings: for potency estimated from few doses: read-out: Ki estimated from one concentration; for inhibition at 25 µM / inhibition at 200 µM / inhibition at 1000 µM / inhibition at 5000 µM / inhibition at 10 µM / inhibition at 5 µM: read-out: percent taurocholate inhibited at the highest inhibitor concentration
[3] = Ki, inhibitor concentration range 0-50 μM, mean±S.E.
[4] = Ki, inhibitor concentration range 0-100 μM, mean±S.E.
[5] = Ki, inhibitor concentration range 0-200 μM, mean±S.E.
[6] = Ki, inhibitor concentration range 0-500 μM, mean±S.E.
[7] = Ki, inhibitor concentration range 0-1000 μM, mean±S.E.
[8] = Ki, inhibitor concentrations 0, 25 μM (Table 2), mean±S.E.
[9] = Reference Ki, from the comprehensive inhibition profile
[10] = Ki, inhibitor concentration range 0-25 μM, mean±S.E.
[11] = Ki, inhibitor concentration range 0-5000 μM, mean±S.E.
[12] = Ki, inhibitor concentration range 0-10 μM, mean±S.E.
[13] = Ki, inhibitor concentration range 0-5 μM, mean±S.E.

Row | inhibition ([1]; 50 µM) | inhibition ([1]; 100 µM) | inhibition ([1]; 500 µM) | Ki [2, 3] | Ki [2, 4] | Ki [2, 5] | Ki [2, 6] | Ki [2, 7] | Ki [2, 9] | potency estimated from few doses [2] | inhibition at 25 µM [2] | inhibition at 200 µM [2] | inhibition at 1000 µM [2] | Ki [2, 10] | inhibition at 10 µM [2] | SMILES | further results
1 | 12% | 13.2% | 35.6% | 231 ± 87 µM | 451 ± 163 µM | 700 ± 196 µM | 686 ± 99 µM | 745 ± 74 µM | 745 µM | 601 ± 69 µM | 9.73% | 18% | 48.3% | – | – | CC(C)(C#N)c1cc(Cn2cncn2)cc(C(C)(C)C#N)c1 [Anastrozole] | Ki [2, 8]: 153 ± 79 µM
2 | 30.5% | 37.6% | 63.6% | 84.3 ± 20.7 µM | 96.4 ± 16.2 µM | 121 ± 18 µM | 144 ± 20 µM | 149 ± 18 µM | 149 µM | 188 ± 21 µM | 8.86% | 46.6% | 79.4% | 166 ± 115 µM | – | NS(=O)(=O)c1cc2c(cc1C(F)(F)F)NC(Cc1ccccc1)NS2(=O)=O (centres unmarked) [Bendroflumethiazide, bendroflumethiazide] | –
3 | 12.2% | 15.6% | 48% | 232 ± 60 µM | 343 ± 75 µM | 299 ± 33 µM | 338 ± 28 µM | 341 ± 22 µM | 341 µM | 354 ± 35 µM | 7.1% | 32.1% | 65.6% | 211 ± 108 µM | – | CCCCNc1cc(C(=O)O)cc(S(N)(=O)=O)c1Oc1ccccc1 [Bumetanide, bumetanide] | –
4 | 27.6% | 43.8% | 73.7% | 93.2 ± 12.5 µM | 85.8 ± 7.6 µM | 96.2 ± 7.7 µM | 101 ± 7 µM | 101 ± 6 µM | 101 µM | 116 ± 3 µM | 10.5% | 53.9% | 86.7% | – | – | CCCCOc1cc(C(=O)NCCN(CC)CC)c2ccccc2n1 [Dibucaine hydrochloride, dibucaine hydrochloride] | Ki [2, 8]: 140 ± 17 µM
5 | 19.5% | 26.5% | 52.4% | 124 ± 16 µM | 174 ± 26 µM | 221 ± 28 µM | 273 ± 30 µM | 301 ± 28 µM | 301 µM | 296 ± 22 µM | 16% | 36.4% | 66.1% | – | – | COc1ccc([C@@H]2Sc3ccccc3N(CCN(C)C)C(=O)[C@@H]2OC(C)=O)cc1 [Diltiazem hydrochloride, diltiazem hydrochloride] | Ki [2, 8]: 86.4 ± 11.9 µM
6 | 52.6% | 77% | 95.5% | 27.4 ± 2 µM | 24.9 ± 1.9 µM | 25.1 ± 1.6 µM | 24.9 ± 1.6 µM | 24.8 ± 1.4 µM | 24.8 µM | 29.7 ± 2.4 µM | 40.2% | 82.9% | 96.2% | 24.5 ± 2.4 µM | – | CC(C)n1c(/C=C/C(O)CC(O)CC(=O)O)c(-c2ccc(F)cc2)c2ccccc21 (centres unmarked) [Fluvastatin, fluvastatin] | Ki [2, 11]: 24.8 ± 1.3 µM; inhibition at 5000 µM [2]: 99.8%
7 | 27.3% | 46.8% | 76.4% | 80.5 ± 13.7 µM | 77.9 ± 8.4 µM | 84.2 ± 7.3 µM | 87.8 ± 6.8 µM | 86.4 ± 6 µM | 86.4 µM | 86.9 ± 12.5 µM | 23.2% | 59.1% | 89.5% | 53.9 ± 8.9 µM | 11% | COc1ccc2c(c1)c(CC(=O)O)c(C)n2C(=O)c1ccc(Cl)cc1 [Indomethacin, indomethacin] | Ki [2, 12]: 52.6 ± 13.6 µM
8 | 49.7% | 68.1% | – | 42.7 ± 7.4 µM | 38.8 ± 5.1 µM | 36.4 ± 4.2 µM | – | – | 36.4 µM | 32.7 ± 2.7 µM | 25.7% | 82.5% | – | 60.4 ± 19.6 µM | 12.1% | COC(=O)C1=C(C)NC(C)=C(C(=O)OC(C)C)C1c1cccc2nonc12 (centres unmarked) [Isradipine, isradipine] | Ki [2, 13]: 17.5 ± 6.6 µM; Ki [2, 12]: 53.4 ± 35.1 µM; Ki ([2]; Ki, inhibitor concentration range 0-[…], mean±S.E.): 9.55 ± 3.67 µM; inhibition at 5 µM [2]: 14.4%
9 | – | – | 49.7% | – | – | 255 ± 14 µM | 305 ± 26 µM | 328 ± 24 µM | 310 µM | 336 ± 26 µM | – | 34.2% | 64.7% | – | – | CC(C(=O)O)c1cccc(C(=O)c2ccccc2)c1 (centres unmarked) [Ketoprofen, ketoprofen] | Ki [2, 11]: 310 ± 28 µM; inhibition at 5000 µM [2]: 98%
10 | 29.5% | 39.4% | 73.6% | 62.1 ± 11.3 µM | 86.9 ± 14.7 µM | 134 ± 25 µM | 132 ± 19 µM | 120 ± 16 µM | 120 µM | 116 ± 2 µM | 30.2% | 44.4% | 91.9% | 40.9 ± 7.09 µM | 5.99% | Cc1c(OCC(F)(F)F)ccnc1C[S+]([O-])c1nc2ccccc2[nH]1 (centres unmarked) [Lansoprazole] | Ki ([2]; Ki, inhibitor concentrations 0, 10 μM (Table 4), mean±S.E.): 103 ± 37 µM
11 | 60.3% | 79.4% | 96.2% | 15.1 ± 2.4 µM | 14.3 ± 2 µM | 13.6 ± 1.9 µM | 13.3 ± 1.9 µM | – | 13.3 µM | 17.3 ± 2.7 µM | 46.9% | 90% | – | 14 ± 2.8 µM | 34.3% | CC(C)OC(=O)CCC/C=C\C[C@@H]1[C@@H](CC[C@@H](O)CCc2ccccc2)[C@H](O)C[C@@H]1O [Latanoprost, latanoprost] | Ki [2, 13]: 19.3 ± 6.7 µM; Ki [2, 12]: 12.2 ± 2.9 µM; inhibition at 5 µM [2]: 28.1%
12 | 31.3% | 52.5% | 79.8% | 69.9 ± 19.5 µM | 59.6 ± 9.9 µM | 63.6 ± 8.2 µM | 64.9 ± 7.3 µM | 63.5 ± 6.6 µM | 63.5 µM | 59.5 ± 7.3 µM | – | 62.2% | 94% | – | – | CN1CCCCC1CCN1c2ccccc2Sc2ccc([S+](C)[O-])cc21 (centres unmarked) [Mesoridazine besylate] | –
13 | 10.7% | 27.9% | 62.8% | 253 ± 126 µM | 189 ± 40 µM | 147 ± 23 µM | 164 ± 20 µM | 174 ± 19 µM | 174 µM | 194 ± 27 µM | 10.9% | 52.7% | 74.4% | – | – | N=C(N)c1ccc(OCCCCCOc2ccc(C(=N)N)cc2)cc1 [Pentamidine Isethionate, pentamidine isethionate] | Ki [2, 8]: 134 ± 82 µM
14 | 36.5% | 52.4% | 78.6% | 59.8 ± 7.5 µM | 60.9 ± 5.3 µM | 64.9 ± 4.8 µM | 67.6 ± 4.8 µM | – | 67.6 µM | 56.1 ± 4.4 µM | 22.7% | 64.6% | – | 54.1 ± 10.9 µM | 14.4% | O=C(O)C[C@H](O)C[C@H](O)/C=C/c1c(C2CC2)nc2ccccc2c1-c1ccc(F)cc1 [Pitavastatin] | Ki [2, 13]: 27.9 ± 7.3 µM; Ki [2, 12]: 29.7 ± 5.9 µM; inhibition at 5 µM [2]: 10.4%
15 | 19.4% | 37.8% | 71% | 148 ± 33 µM | 118 ± 15 µM | 115 ± 10 µM | 117 ± 8 µM | – | 117 µM | 123 ± 11 µM | 8.9% | 53.3% | – | – | 11.7% | CC(C)c1nc(N(C)S(C)(=O)=O)nc(-c2ccc(F)cc2)c1/C=C/[C@@H](O)C[C@@H](O)CC(=O)O [Rosuvastatin] | Ki [2, 12]: 46.7 ± 14.4 µM; Ki ([2]; Ki, inhibitor concentrations 0, 5 μM (Table 2), mean±S.E.): 196 ± 423 µM; Ki [2, 8]: 147 ± 67 µM; inhibition at 5 µM [2]: 1.54%
16 | – | – | 25.7% | – | – | 1030 ± 344 µM | 913 ± 115 µM | 1110 ± 136 µM | 917 µM | 905 ± 105 µM | – | 34.6% | 11% | – | – | CN1CCN(CC/C=C2/c3ccccc3Sc3ccc(S(=O)(=O)N(C)C)cc32)CC1 [Thiothixene, thiothixene] | Ki [2, 11]: 917 ± 111 µM; inhibition at 5000 µM [2]: 83.3%
17 | 47.7% | 63.7% | 87.1% | 32.7 ± 4.7 µM | – | 33.7 ± 3.1 µM | 33.6 ± 2.8 µM | 34.1 ± 2.7 µM | 34.1 µM | 33 ± 6.2 µM | 32.2% | 74% | 87.2% | 32.3 ± 6.3 µM | – | Clc1ccc(C(Cn2ccnc2)OCc2ccsc2Cl)c(Cl)c1 (centres unmarked) [Tioconazole, tioconazole] | Ki ([2]; inhibitor concentration range 0-100 μM, mean±S.E.): 32.8 ± 3.6 µM

Row | SMILES | inhibition ([1]; 50 µM) | inhibition ([1]; 100 µM) | inhibition ([1]; 500 µM) | Ki [2, 3] | Ki [2, 4] | Ki [2, 5] | Ki [2, 6] | Ki [2, 7] | Ki [2, 9] | potency estimated from few doses [2] | inhibition at 25 µM [2] | inhibition at 200 µM [2] | inhibition at 1000 µM [2] | Ki [2, 10] | inhibition at 10 µM [2] | further results
18 | COCc1c(C(C)C)nc(C(C)C)c(/C=C/[C@@H](O)C[C@@H](O)CC(=O)O)c1-c1ccc(F)cc1 [Cerivastatin, cerivastatin] | – | – | – | – | – | – | – | – | – | 47.4 ± 22.5 µM | – | – | – | – | – | –
